In PubChem BioAssay AID248 (DTP/NCI, 2004):
“And” between values parts separate entries of the source, which are not always exact repeats. Equal values may be shown once. Inconclusive results and toxic doses are left out.

Test system: L1210 leukemia ip in BDF1 mice, survival T/C
Assay: NCI In Vivo Anticancer Drug Screen. Data for tumor model L1210 Leukemia (intraperitoneal) in B6D2F1 (BDF1) mice
Details: endpoint: mean survival time, higher = longer survival
Procedure, shortened: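 Tumor cells were implanted, animals were treated, and survival was followed. The result divides the treated measurement by the vehicle-control measurement.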

[1] = dose: 100.0 mg/kg/injection, schedule: Q04DX003 (ip), vehicle: Klucel (hydroxypropylcellulose) (HPC)
[2] = dose: 200.0 mg/kg/injection, schedule: Q04DX003 (ip), vehicle: Klucel (hydroxypropylcellulose) (HPC)
[3] = dose: 400.0 mg/kg/injection, schedule: Q04DX003 (ip), vehicle: Klucel (hydroxypropylcellulose) (HPC)
[4] = dose: 100.0 mg/kg/injection, schedule: Q04DX002 (ip), vehicle: Klucel (hydroxypropylcellulose) (HPC)
[5] = dose: 200.0 mg/kg/injection, schedule: Q04DX002 (ip), vehicle: Klucel (hydroxypropylcellulose) (HPC)
[6] = dose: 400.0 mg/kg/injection, schedule: Q04DX002 (ip), vehicle: Klucel (hydroxypropylcellulose) (HPC)
[7] = dose: 100.0 mg/kg/injection, schedule: Q01DX009 (ip), vehicle: Klucel (hydroxypropylcellulose) (HPC)
[8] = dose: 200.0 mg/kg/injection, schedule: Q01DX009 (ip), vehicle: Klucel (hydroxypropylcellulose) (HPC)
[9] = dose: 400.0 mg/kg/injection, schedule: Q01DX009 (ip), vehicle: Klucel (hydroxypropylcellulose) (HPC)
[10] = dose: 100.0 mg/kg/injection, schedule: Q01DX001 (ip), vehicle: saline
[11] = dose: 200.0 mg/kg/injection, schedule: Q01DX001 (ip), vehicle: saline
[12] = dose: 400.0 mg/kg/injection, schedule: Q01DX001 (ip), vehicle: saline
[13] = dose: 50.0 mg/kg/injection, schedule: Q04DX003 (ip), vehicle: Klucel (hydroxypropylcellulose) (HPC)
[14] = dose: 50.0 mg/kg/injection, schedule: Q01DX001 (ip), vehicle: saline
[15] = dose: 100.0 mg/kg/injection, schedule: Q01DX001 (ip), vehicle: carboxymethylcellulose (CMC)
[16] = dose: 200.0 mg/kg/injection, schedule: Q01DX001 (ip), vehicle: carboxymethylcellulose (CMC)
[17] = dose: 400.0 mg/kg/injection, schedule: Q01DX001 (ip), vehicle: carboxymethylcellulose (CMC)

O=C(COc1cc(Cl)c(Cl)cc1Cl)Nc1cccc2c1C(=O)c1ccccc1C2=O was tested, and the T/C (dose: 75.0 mg/kg/injection, schedule: Q04DX002 (ip), vehicle: Klucel (hydroxypropylcellulose) (HPC)) was 98 % of control, the T/C (dose: 150.0 mg/kg/injection, schedule: Q04DX002 (ip), vehicle: Klucel (hydroxypropylcellulose) (HPC)) was 103 % of control and the T/C (dose: 300.0 mg/kg/injection, schedule: Q04DX002 (ip), vehicle: Klucel (hydroxypropylcellulose) (HPC)) was 103 % of control.

In the case of Cc1ccc(S(=O)(=O)N2CCCC(Br)(Br)C(=O)c3ccccc32)cc1, the T/C [1] is reported as 100 % of control, the T/C [2] is reported as 97 % of control and the T/C [3] is reported as 96 % of control.

In the case of Cc1ccc(Cl)cc1NC(=O)C(C)Oc1ccccc1 (stereo not given), the T/C [4] is reported as 89 % of control, the T/C [5] is reported as 89 % of control and the T/C [6] is reported as 92 % of control.

With CCCCCCCCSC(=O)N(C(C)C)C(C)C the T/C (dose: 50.0 mg/kg/injection, schedule: Q04DX002 (ip), vehicle: saline) was 100 % of control, the T/C (dose: 100.0 mg/kg/injection, schedule: Q04DX002 (ip), vehicle: saline) was 100 % of control and 105 % of control and the T/C (dose: 200.0 mg/kg/injection, schedule: Q04DX002 (ip), vehicle: saline) was 100 % of control. The T/C (dose: 400.0 mg/kg/injection, schedule: Q04DX002 (ip), vehicle: saline) was 108 % of control and 86 % of control.

COC(=O)/C=C\C=C(\CBr)C(=O)OC was tested, and the T/C (dose: 6.25 mg/kg/injection, schedule: Q01DX009 (ip), vehicle: saline) was 104 % of control, the T/C (dose: 6.25 mg/kg/injection, schedule: Q04DX003 (ip), vehicle: saline sonified) was 103 % of control and the T/C (dose: 12.5 mg/kg/injection, schedule: Q01DX009 (ip), vehicle: saline) was 96 % of control. The T/C (dose: 12.5 mg/kg/injection, schedule: Q04DX003 (ip), vehicle: saline sonified) was 97 % of control, the T/C (dose: 25.0 mg/kg/injection, schedule: Q01DX009 (ip), vehicle: saline) was 110 % of control and the T/C (dose: 25.0 mg/kg/injection, schedule: Q04DX003 (ip), vehicle: saline sonified) was 95 % of control.

With CC(=O)Nc1ccc(/C=C/c2ccc([N+](=O)[O-])cc2)cc1 the T/C [7] was 100 % of control, the T/C [4] was 96 % of control and the T/C [1] was 100 % of control. The T/C [8] was 95 % of control, the T/C [5] was 93 % of control and the T/C [2] was 98 % of control. The T/C [9] was 92 % of control, the T/C [6] was 104 % of control and the T/C [3] was 107 % of control.

In the case of COc1ccc(-c2c(C)c(C)[nH]c(=O)c2C#N)c(OCc2ccccc2)c1OC, the T/C [10] is reported as 101 % of control, the T/C [11] is reported as 101 % of control and the T/C [12] is reported as 93 % of control.

O=S(=O)(F)c1cccc2nsnc12 was tested, and the T/C (dose: 25.0 mg/kg/injection, schedule: Q04DX003 (ip), vehicle: Klucel (hydroxypropylcellulose) (HPC)) was 95 % of control, the T/C [13] was 101 % of control and the T/C [1] was 87 % of control. The T/C (dose: 100.0 mg/kg/injection, schedule: Q04DX003 (ip), vehicle: carboxymethylcellulose (CMC)) was 93 % of control and the T/C (dose: 400.0 mg/kg/injection, schedule: Q04DX003 (ip), vehicle: carboxymethylcellulose (CMC)) was 104 % of control.

For Cc1csc(C)n1.Cc1csc(C)n1.Cc1csc(C)n1.Cc1csc(C)n1.[Cl][Rh][Cl], the T/C (dose: 3.13 mg/kg/injection, schedule: Q04DX003 (ip), vehicle: distilled water + Tween-80) was 105 % of control, the T/C (dose: 6.25 mg/kg/injection, schedule: Q04DX003 (ip), vehicle: distilled water + Tween-80) was 102 % of control and the T/C (dose: 12.5 mg/kg/injection, schedule: Q04DX003 (ip), vehicle: distilled water + Tween-80) was 100 % of control. For the same compound, the T/C (dose: 25.0 mg/kg/injection, schedule: Q04DX003 (ip), vehicle: distilled water + Tween-80) was 110 % of control.

With CCOc1ncc(N)c(OCC)n1 the T/C [14] was 112 % of control, the T/C [10] was 97 % of control and the T/C [11] was 103 % of control. For the same compound, the T/C [12] was 100 % of control.

COC1CCC2CCN(C)C(Cc3ccc(Oc4ccc(CC5C6CC(OC)CCC6CCN5C)cc4)cc3)C2C1 (stereo not given) was tested, and the T/C (dose: 0.39 mg/kg/injection, schedule: Q01DX009 (ip), vehicle: saline with Tween-80) was 96 % of control, the T/C (dose: 0.78 mg/kg/injection, schedule: Q01DX009 (ip), vehicle: saline with Tween-80) was 96 % of control and 108 % of control and the T/C (dose: 1.56 mg/kg/injection, schedule: Q01DX009 (ip), vehicle: saline with Tween-80) was 108 % of control. For the same compound, the T/C (dose: 3.13 mg/kg/injection, schedule: Q01DX009 (ip), vehicle: saline with Tween-80) was 102 % of control.

For O=C1NC(=S)S/C1=C\c1ccc([N+](=O)[O-])s1, the T/C [4] was 90 % of control and the T/C [5] was 93 % of control.

With COc1cc(NS(C)(=O)=O)ccc1Nc1c2ccccc2nc2cc(C(F)(F)F)c(N)cc12 the T/C (dose: 50.0 mg/kg/injection, schedule: Q01DX009 (ip), vehicle: Klucel (hydroxypropylcellulose) (HPC)) was 113 % of control and 123 % of control, the T/C [13] was 118 % of control and the T/C [1] was 123 % of control. The T/C [8] was 153 % of control and 174 % of control, the T/C [5] was 162 % of control and the T/C [6] was 179 % of control. The T/C [3] was 112 % of control.

N=C(N)SC/C=C/CSC(=N)N was tested, and the T/C (dose: 25.0 mg/kg/injection, schedule: Q04DX003 (ip), vehicle: saline) was 106 % of control, the T/C (dose: 50.0 mg/kg/injection, schedule: Q04DX003 (ip), vehicle: saline) was 96 % of control and the T/C (dose: 100.0 mg/kg/injection, schedule: Q04DX003 (ip), vehicle: saline) was 103 % of control and 88 % of control.

NC(N)=NN(CCN(N=O)N=C(N)N)N=O was tested, and the T/C [4] was 96 % of control, the T/C [5] was 104 % of control and the T/C [6] was 86 % of control.

Cc1cc(N(CCO)CCO)c(C)cc1NC(=O)c1ccccc1 was tested, and the T/C [15] was 106 % of control, the T/C [16] was 101 % of control and the T/C [17] was 94 % of control.

In the case of O=C(Oc1ccccc1Cl)c1ccc(Cl)c(Cl)c1, the T/C [7] is reported as 98 % of control, the T/C [1] is reported as 95 % of control and the T/C [8] is reported as 93 % of control. For the same compound, the T/C [2] was 90 % of control, the T/C [9] was 90 % of control and the T/C [3] was 90 % of control.

CCC(=O)OC/C=C/c1ccccc1 was tested, and the T/C (dose: 100.0 mg/kg/injection, schedule: Q01DX009 (ip), vehicle: saline) was 95 % of control, the T/C (dose: 100.0 mg/kg/injection, schedule: Q04DX003 (ip), vehicle: alcohol) was 100 % of control and the T/C (dose: 200.0 mg/kg/injection, schedule: Q01DX009 (ip), vehicle: saline) was 102 % of control. The T/C (dose: 200.0 mg/kg/injection, schedule: Q04DX003 (ip), vehicle: alcohol) was 98 % of control, the T/C (dose: 400.0 mg/kg/injection, schedule: Q01DX009 (ip), vehicle: saline) was 95 % of control and the T/C (dose: 400.0 mg/kg/injection, schedule: Q04DX003 (ip), vehicle: alcohol) was 94 % of control.

OC(C(F)(F)F)C(F)(F)Cl (stereo not given) was tested, and the T/C [10] was 104 % of control.

With CC(C)NC(=O)C1CC2c3cccc4[nH]c(Br)c(c34)CC2N(C)C1 (stereo not given) the T/C (dose: 5.0 mg/kg/injection, schedule: Q04DX003 (ip), vehicle: saline with Tween-80) was 94 % of control, the T/C (dose: 10.0 mg/kg/injection, schedule: Q04DX003 (ip), vehicle: saline with Tween-80) was 93 % of control and the T/C (dose: 20.0 mg/kg/injection, schedule: Q04DX003 (ip), vehicle: saline with Tween-80) was 88 % of control.

In the case of CCOC(=O)NCC(CCCCN(C)C)(c1cccc2ccccc12)C(C)CC (stereo not given), the T/C (dose: 12.5 mg/kg/injection, schedule: Q01DX009 (ip), vehicle: saline with Tween-80) is reported as 96 % of control, the T/C (dose: 25.0 mg/kg/injection, schedule: Q01DX009 (ip), vehicle: saline with Tween-80) is reported as 97 % of control and the T/C (dose: 50.0 mg/kg/injection, schedule: Q01DX009 (ip), vehicle: saline with Tween-80) is reported as 100 % of control.

For CC(=O)C(Cc1ccccc1)(c1ccccc1)c1ccccc1, the T/C [14] was 103 % of control, the T/C [10] was 103 % of control and the T/C [11] was 97 % of control. For the same compound, the T/C [12] was 97 % of control.

COc1ccc(NC(=O)NO)cc1 was tested, and the T/C (dose: 50.0 mg/kg/injection, schedule: Q04DX002 (ip), vehicle: saline with Tween-80) was 108 % of control, the T/C (dose: 100.0 mg/kg/injection, schedule: Q04DX002 (ip), vehicle: saline with Tween-80) was 101 % of control and the T/C (dose: 200.0 mg/kg/injection, schedule: Q04DX002 (ip), vehicle: saline with Tween-80) was 108 % of control.

Cc1ccccc1OCc1nc(-c2ccc(N(CCCl)CCCl)cc2)cs1 was tested, and the T/C [15] was 101 % of control, the T/C [16] was 113 % of control and the T/C [17] was 104 % of control.
